# Laboratory results from publication PMC12517401, “Design, synthesis, and antiproliferative activity of new 2-amino-pyrano[3,2-c]quinoline-3-carbonitriles as potential EGFR, BRAF^V600E, and HER-2 inhibitors” (RSC Advances, 2025).
# Like-named read-outs stand apart in the source and are kept apart here.
# Legend:
# [1] = tested on: pancreatic cancer (Panc-1); experiment: Antiproliferative assay, Panc-1; format: cell-based; conditions: Homo sapiens; Panc-1 pancreatic cancer cell line; read-out: Antiproliferative activity IC50 ± SEM (nM) Panc-1
# Description: (§1) 4.2.2. Assay for antiproliferative effect
# (§2) To explore the antiproliferative potential of compounds propidium iodide fluorescence assay was performed using different cell lines such as Panc-1 (pancreas cancer cell line), MCF-7 (breast cancer cell line), HT-29 (colon cancer cell line) and A-549 (epithelial cancer cell line), respectively. To calculate the total nuclear DNA, a fluorescent dye (propidium iodide, PI) is used which can attach to the DNA, thus offering a quick and precise technique. PI cannot pass through the cell membrane and its signal intensity can be considered as directly proportional to quantity of cellular DNA. Cells whose cell membranes are damaged or have changed permeability are counted as dead ones. The assay was performed by seeding the cells of different cell lines at a density of 3000-7500 cells/well (in 200μl medium) in culture plates followed by incubation for 24h at 37 °C in humidified 5%CO2/95% air atmospheric conditions. The medium was removed; the compounds were added to the plates at 10 μM concentrations (in 0.1% DMSO) in triplicates, followed by incubation for 48h. DMSO (0.1%) was used as control. After incubation, medium was removed followed by the addition of PI (25 μl, 50μg/mL in water/medium) to each well of the plates. At -80 °C, the plates were allowed to freeze for 24 h, followed by thawing at 25 °C. A fluorometer (Polar-Star BMG Tech) was used to record the readings at excitation and emission wavelengths of 530 and 620 nm for each well. The percentage cytotoxicity of compounds was calculated using the following formula:
# (§3) Where ATC= Absorbance of treated cells and AC= Absorbance of control. Erlotinib was used as positive control in the assay. […]
# lung cancer (A-549) = experiment: Antiproliferative assay, A-549; format: cell-based; conditions: Homo sapiens, A549; A-549 lung cancer cell line; read-out: Antiproliferative activity IC50 ± SEM (nM) A-549
# Description: as §1, §2, §3
# (1 picture or pasted object on this page, not shown here)
# HER-2 [2] = molecular target: T1, HER-2 (Homo sapiens, UniProt P04626); experiment: HER-2 inhibitory assay (ADP-Glo kinase assay); format: biochemical; conditions: read-out: HER-2 inhibition IC50 ± SEM
# T1 construct: purchased Abcam ab60866
# T1 sequence (P04626 23-1255): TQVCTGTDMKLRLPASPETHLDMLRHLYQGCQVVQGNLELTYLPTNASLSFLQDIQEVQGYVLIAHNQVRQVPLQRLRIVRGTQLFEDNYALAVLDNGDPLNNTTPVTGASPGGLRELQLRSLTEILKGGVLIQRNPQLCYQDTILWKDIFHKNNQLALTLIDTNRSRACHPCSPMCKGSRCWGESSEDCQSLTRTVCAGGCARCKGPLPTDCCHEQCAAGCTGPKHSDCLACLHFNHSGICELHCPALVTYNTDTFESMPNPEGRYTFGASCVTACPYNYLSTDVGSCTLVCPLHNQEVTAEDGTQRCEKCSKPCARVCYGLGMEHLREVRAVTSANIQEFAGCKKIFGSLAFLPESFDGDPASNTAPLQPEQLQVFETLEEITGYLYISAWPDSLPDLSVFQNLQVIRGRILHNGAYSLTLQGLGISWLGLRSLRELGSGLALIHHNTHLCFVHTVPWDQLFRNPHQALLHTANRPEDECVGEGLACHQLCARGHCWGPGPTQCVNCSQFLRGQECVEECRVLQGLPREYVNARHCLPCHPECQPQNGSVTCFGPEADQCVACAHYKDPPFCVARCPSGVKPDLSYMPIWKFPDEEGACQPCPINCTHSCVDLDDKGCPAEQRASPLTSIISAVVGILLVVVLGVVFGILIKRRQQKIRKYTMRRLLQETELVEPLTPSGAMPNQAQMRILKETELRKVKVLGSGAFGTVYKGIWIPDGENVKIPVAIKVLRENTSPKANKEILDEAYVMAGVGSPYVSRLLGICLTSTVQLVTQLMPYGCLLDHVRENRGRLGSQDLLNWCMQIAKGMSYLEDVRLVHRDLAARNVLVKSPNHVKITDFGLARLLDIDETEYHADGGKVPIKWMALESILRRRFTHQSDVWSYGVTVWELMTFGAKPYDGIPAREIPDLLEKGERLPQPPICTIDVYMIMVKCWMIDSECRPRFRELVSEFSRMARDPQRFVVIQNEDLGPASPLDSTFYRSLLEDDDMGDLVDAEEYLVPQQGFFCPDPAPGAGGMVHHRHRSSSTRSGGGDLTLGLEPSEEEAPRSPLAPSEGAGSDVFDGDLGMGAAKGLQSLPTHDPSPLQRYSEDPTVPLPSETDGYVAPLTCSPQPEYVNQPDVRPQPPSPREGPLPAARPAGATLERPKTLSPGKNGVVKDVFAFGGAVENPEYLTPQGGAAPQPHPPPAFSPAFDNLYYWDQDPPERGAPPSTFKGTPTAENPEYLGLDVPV
# Description: The results are presented as IC50 values. Lapatinib served as the reference medication. Appendix A describes more experimental details.
# Lapatinib functioned as the reference drug. […]
# 4.2.5. HER-2 inhibitory assay
# The ADP-Glo™ Kinase Assay was used for kinase activity detection, related kinases information:
# HER-2 (ab60866, Abcam), with a concentration of 100 ng/mL. Target compounds were dissolved in DMSO to obtain drug solutions with different concentrations, and the compound concentrations in the final reaction system (100 μL) were 1 nM, 20 nM, 40 nM, 80 nM, and 100 nM, respectively. 10μL of the solution containing compounds was transferred to a 96-well plate, then added 40 μL of 1 × kinase buffer (50 mM HEPES, pH 7.5) to each well, and mixed the mixture in the 96-well plate on a shaker for 10 min. Next, added 25 μL of ADP-Glo™ reagent to the above wells, mixed and incubated for another 40 min. Distributed 10 μL kinase detection reagent to the reaction and incubated for 30 min. Finally, the full-wavelength microplate reader was used to record the OD value.
# 4.3. Statistical analysis
# Computerized Prism 5 program was used to statistically analyzed data using one-way ANOVA test followed by Tukey’s as post ANOVA for multiple comparison at P ≤.05. Data were presented as […]
# colon cancer (HT-29) = experiment: Antiproliferative assay, HT-29; format: cell-based; conditions: Homo sapiens; HT-29 colon cancer cell line; read-out: Antiproliferative activity IC50 ± SEM (nM) HT-29
# Description: as §1, §2, §3
# EGFR [3] = molecular target: T2, EGFR (Homo sapiens, UniProt P00533); experiment: EGFR-TK inhibitory assay
# T2 sequence (P00533 669-1210): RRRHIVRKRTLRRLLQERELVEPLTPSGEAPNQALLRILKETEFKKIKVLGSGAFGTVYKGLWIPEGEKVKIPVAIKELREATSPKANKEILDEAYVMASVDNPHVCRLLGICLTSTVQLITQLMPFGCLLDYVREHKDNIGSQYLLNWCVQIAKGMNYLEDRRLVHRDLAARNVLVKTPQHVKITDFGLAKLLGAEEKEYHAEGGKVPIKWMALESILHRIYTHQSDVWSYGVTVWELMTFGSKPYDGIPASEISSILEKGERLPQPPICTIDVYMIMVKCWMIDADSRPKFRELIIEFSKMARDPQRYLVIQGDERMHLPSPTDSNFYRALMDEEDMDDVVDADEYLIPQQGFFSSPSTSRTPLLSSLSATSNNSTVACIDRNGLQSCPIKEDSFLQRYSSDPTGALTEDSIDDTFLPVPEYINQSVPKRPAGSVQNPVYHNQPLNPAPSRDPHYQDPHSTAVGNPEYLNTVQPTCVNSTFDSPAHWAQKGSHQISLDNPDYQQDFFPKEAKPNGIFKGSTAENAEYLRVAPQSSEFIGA
# [4] = tested on: four human cancer cell lines (A-549, MCF-7, Panc-1, HT-29); experiment: Antiproliferative assay, average over four cancer cell lines (GI50); format: cell-based; conditions: for GI50: GI50 = mean IC50 against the four cancer cell lines
# Description: as §1
# To explore the antiproliferative potential of compounds propidium iodide fluorescence assay was performed using different cell lines such as Panc-1 (pancreas cancer cell line), MCF-7 (breast cancer […]
# calculate the total nuclear DNA, a fluorescent dye (propidium iodide, PI) is used which can attach to the DNA, thus offering a quick and precise technique. PI cannot pass through the cell membrane and its signal intensity can be considered as directly proportional to quantity of cellular DNA. Cells whose cell membranes are damaged or have changed permeability are counted as dead ones. The assay was performed by seeding the cells of different cell lines at a density of 3000-7500 cells/well (in 200μl […]
# atmospheric conditions. The medium was removed; the compounds were added to the plates at 10 μM concentrations (in 0.1% DMSO) in triplicates, followed by incubation for 48h. DMSO (0.1%) was used as control. After incubation, medium was removed followed by the addition of PI (25 μl, 50μg/mL in water/medium) to each well of the plates. At -80 °C, the plates were allowed to freeze for 24 h, followed by thawing at 25 °C. A fluorometer (Polar-Star BMG Tech) was used to record the readings at excitation and emission wavelengths of 530 and 620 nm for each well. The percentage cytotoxicity of compounds was calculated using the following formula:
# Where ATC= Absorbance of treated cells and AC= Absorbance of control. […]
# positive control in the assay. […]
# BRAF^V600E [5] = molecular target: BRAF^V600E (Mus musculus, UniProt P28028, V585E); experiment: BRAF^V600E inhibitory assay
# Sequence of BRAF^V600E (P28028 whole entry V585E): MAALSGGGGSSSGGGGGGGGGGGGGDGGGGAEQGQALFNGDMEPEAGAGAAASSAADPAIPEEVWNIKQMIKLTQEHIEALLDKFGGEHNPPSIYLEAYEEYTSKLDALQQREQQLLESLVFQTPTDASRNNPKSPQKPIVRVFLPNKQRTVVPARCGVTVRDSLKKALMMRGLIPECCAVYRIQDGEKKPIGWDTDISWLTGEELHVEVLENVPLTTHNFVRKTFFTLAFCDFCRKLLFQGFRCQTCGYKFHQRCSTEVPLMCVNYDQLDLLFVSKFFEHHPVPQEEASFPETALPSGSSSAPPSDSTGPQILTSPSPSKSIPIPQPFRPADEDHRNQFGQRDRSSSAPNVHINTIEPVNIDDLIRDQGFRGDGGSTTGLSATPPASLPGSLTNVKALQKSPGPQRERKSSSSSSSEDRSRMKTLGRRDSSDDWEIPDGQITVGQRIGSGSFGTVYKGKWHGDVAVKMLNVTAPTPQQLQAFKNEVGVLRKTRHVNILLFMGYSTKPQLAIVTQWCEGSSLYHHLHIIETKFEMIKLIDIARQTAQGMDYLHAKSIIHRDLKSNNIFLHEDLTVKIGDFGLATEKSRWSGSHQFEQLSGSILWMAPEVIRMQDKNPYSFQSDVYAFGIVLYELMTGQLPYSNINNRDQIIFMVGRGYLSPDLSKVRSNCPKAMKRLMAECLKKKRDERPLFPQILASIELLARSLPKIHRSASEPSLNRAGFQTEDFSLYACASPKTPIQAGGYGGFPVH
# Sequence of BRAF^V600E (Mus musculus, UniProt P28028, V585E) (P28028 whole entry V585E): as above
# BRAF^V600E [6] = experiment: BRAF^V600E inhibitory assay; conditions: ratio of BRAF^V600E IC50 versus erlotinib
# [7] = Cell viability assay (MTT) on MCF-10A normal cell line; format: cell-based; conditions: human, MCF-10A mammary gland epithelial normal cells, MCF-10A cells, 50 μM of each compound, four days of incubation
# Description: The human mammary gland epithelial (MCF-10A) normal cell line was used to examine the viability effects of new derivatives 5a–l using the MTT test.[33,34] Refer to Appendix A for more details.
# The human mammary gland epithelium (MCF-10A) normal cell line was employed to evaluate the viability effects of novel derivatives 5a–l. The cell viability of 5a–l was assessed via the MTT assay following four days of incubation with 50 μM of each compound on MCF-10A cells.[33,34] […]
# 4.2. Biological evaluation
# 4.2.1 Cell Viability assay (MTT assay)
# MTT assay was performed to investigate the effect of the synthesized compounds on mammary epithelial cells (MCF-10A). The cells were propagated in medium consisting of Ham's F-12 medium/ Dulbecco's modified Eagle's medium (DMEM) (1:1) supplemented with 10% foetal calf serum, 2 mM glutamine, insulin (10 μg/mL), hydrocortisone (500 ng/mL) and epidermal growth factor (20 ng/mL). Trypsin ethylenediamine tetra acetic acid (EDTA) was used to passage the cells after every 2-3 days. 96-well flat-bottomed cell culture plates were used to seed the cells at a density of 10^4 cells mL-1. The medium was aspirated from all the wells of culture plates after 24 h followed by the addition of synthesized compounds (in 200 μL medium to yield a final concentration of 0.1% (v/v) dimethyl sulfoxide) into individual wells of the plates. Four wells were designated to a single compound. The plates were allowed to incubate at 37°C for 96 h. Afterwards, the medium was aspirated and 3-[4,5-dimethylthiazol-2-yl]-2,5-diphenyltetrazolium bromide (MTT) (0.4 mg/mL) in medium was added to each well and subsequently incubated for 3 h. The medium was aspirated and 150 μL dimethyl sulfoxide (DMSO) was added to each well. The plates were vortexed followed by the measurement of absorbance at 540 nm on a microplate reader. The results were presented as inhibition (%) of proliferation in contrast to controls comprising 0.1% DMSO. […]
# breast cancer (MCF-7) = experiment: Antiproliferative assay, MCF-7; format: cell-based, human; conditions: Homo sapiens, MCF7; MCF-7 breast cancer cell line; read-out: Antiproliferative activity IC50 ± SEM (nM) MCF-7
# Description: as §1, §2, §3
# [8] = tested on: four human cancer cell lines; set-up: method as in doi:10.1016/j.molstruc.2023.136953; conditions: earlier study of the authors; read-out: GI50 against the four cancer cell lines; cited from earlier work
# EGFR [9] = molecular target: T2, EGFR; set-up: 645–1186; His6 (N); made in house; host or cells: Sf-9 insect cells (baculovirus; pBlueBacHis2B / pFASTBacHTc); method as in doi:10.1016/j.molstruc.2023.136953; conditions: earlier study of the authors; cited from earlier work
# HER-2 [10] = molecular target: T1, HER-2; set-up: method as in PMID 39434991; conditions: earlier study of the authors; read-out: HER-2 inhibitory IC50; cited from earlier work
# EGFR [11] = molecular target: T2, EGFR; set-up: 645–1186; His6 (N); made in house; host or cells: Sf-9 insect cells (baculovirus; pBlueBacHis2B / pFASTBacHTc); method as in PMID 39434991; conditions: earlier study of the authors; read-out: EGFR inhibitory IC50; cited from earlier work
# BRAF^V600E [12] = tested on: BRAF^V600E; set-up: method as in doi:10.1016/j.molstruc.2023.136953; conditions: earlier study of the authors; cited from earlier work
# BRAF^V600E [13] = tested on: BRAF^V600E; set-up: method as in PMID 33279248; conditions: earlier study of the authors; cited from earlier work
IC50 [1],IC50 (lung cancer (A-549)),IC50 (HER-2 [2]),IC50 (colon cancer (HT-29)),IC50 (EGFR [3]),GI50 ([4]; Homo sapiens),IC50 (BRAF^V600E [5]),"Fold reduced potency compared to erlotinib, BRAF^V600E (BRAF^V600E [6])",IC50 (breast cancer (MCF-7)),Structure (SMILES),"viability at 4 days, 50 µM [7]",GI50 [8],also measured
29 ± 2 nM,28 ± 2 nM,0.023 ± 0.001 µM,29 ± 2 nM,0.075 ± 0.004 µM,0.026 µM,0.067 ± 0.003 µM,1.1 fold,26 ± 2 nM,"COc1ccc(C2C(C#N)=C(N)Oc3c2c(=O)[nH]c2ccc(OC)cc32)cc1 (stereo not drawn) [Compound 5h, 2-Amino-9-methoxyl-4-(4-methoxylphenyl)-5-oxo-5,6-dihydro-4H-pyrano[3,2-c]quinoline-3-carbonitrile]",91%,,"GI50 [4]: 0.028 µM; Times more effective than erlotinib (GI50) ([4]; ratio of GI50 versus erlotinib, four cancer cell lines): 1.25 fold"
31 ± 2 nM,30 ± 2 nM,0.031 ± 0.002 µM,33 ± 2 nM,0.078 ± 0.004 µM,0.03 µM,0.074 ± 0.004 µM,1.3 fold,27 ± 2 nM,"COc1ccc(C2C(C#N)=C(N)Oc3c2c(=O)n(C)c2ccccc32)cc1 (stereo not drawn) [Compound 5i, 2-Amino-6-methyl-4-(4-methoxylphenyl)-5-oxo-5,6-dihydro-4H-pyrano[3,2-c]quinoline-3-carbonitrile]",90%,,
,,,,,,,,,CC(=NO)c1ccc(NC(=O)c2cc(-c3ccc(S(C)(=O)=O)cc3)nc3ccccc23)cc1 [Compound II],,1.2 µM,IC50 (EGFR [9]): 0.105 ± 0.01 µM
,,,,,,,,,O=c1[nH]c2ccccc2c(O)c1/C=N/c1ccc(NS(=O)(=O)c2ncccn2)cc1 [Compound I],,,IC50 (HER-2 [10]): 0.031 µM; IC50 (EGFR [11]): 0.071 µM
,,,,,,,,,COc1cccc2c1C(=O)c1c(O)c3c(c(O)c1C2=O)C[C@@](O)(C(=O)CO)C[C@@H]3O[C@H]1C[C@H](N)[C@H](O)[C@H](C)O1 [doxorubicin],,1.4 µM,

Structure (SMILES),IC50 [1],IC50 (lung cancer (A-549)),IC50 (HER-2 [2]),IC50 (colon cancer (HT-29)),IC50 (EGFR [3]),GI50 ([4]; Homo sapiens),IC50 (BRAF^V600E [5]),"Fold reduced potency compared to erlotinib, BRAF^V600E (BRAF^V600E [6])",IC50 (breast cancer (MCF-7)),"viability at 4 days, 50 µM [7]",GI50 [8],also measured
"C#Cc1cccc(Nc2ncnc3cc(OCCOC)c(OCCOC)cc23)c1 [Erlotinib, reference compound]",30 ± 3 nM,30 ± 3 nM,,30 ± 3 nM,,,,,40 ± 3 nM,,,IC50 (BRAF^V600E [12]): […]; IC50 (BRAF^V600E [13]): […]
